The source of these data is ChEMBL document CHEMBL1932922, “Synthesis, antitubercular evaluation and 3D-QSAR study of N-phenyl-3-(4-fluorophenyl)-4-substituted pyrazole derivatives” (Bioorg Med Chem Lett, 2012).

The experiment deals with Mycobacterium tuberculosis. As to the kind of experiment: Antituberculosis activity against Mycobacterium tuberculosis H37Rv ATCC 27294 by modified BACTEC 460 method. To be noted: for IC50 / IC90: Mycobacterium tuberculosis, H37Rv ATCC 27294. It is filed as functional, organism-based.

In general, IC90 refers to the point of the concentration-response curve where the effect stands at 90%. A higher IC90 goes with weaker potency.

Bounds are passed on as bounds.

Compound `Cc1ccc(C2=NN[C@@H](c3cn(-c4ccccc4)nc3-c3ccc(F)cc3)C2)cc1` came in with a pIC90 of 5.39. Where the note is “read-out: pIC50 (converted)”, the IC50 is 5.37 µM.
Regarding `Fc1ccc(-c2nn(-c3ccccc3)cc2[C@H]2CC(c3ccc(Cl)cc3)=NN2)cc1`, the pIC90 turned out to be 4.16 and the 90% effect level (IC90) was put at 68.7 µM. Moreover, the IC50 (read-out: IC50) turned out to be 43.3 µM. Further, the IC50 (read-out: pIC50 (converted)) is 43.7 µM.
The corresponding values for `COc1ccc(C2=NN[C@@H](c3cn(-c4ccccc4)nc3-c3ccc(F)cc3)C2)cc1` are 4.91, 12.3 µM, 0.47 µM and 0.468 µM.
Take `O=C(/C=C/c1cn(-c2ccccc2)nc1-c1ccc(F)cc1)c1ccccc1`: the pIC90 is listed as 4.79 and the IC90 is 16.3 µM. Also, for the setting “read-out: IC50”, the IC50 amounted to 10.5 µM. In addition, the IC50 (read-out: pIC50 (converted)) was 10.5 µM.
Take `COc1ccc(C(=O)/C=C/c2cn(-c3ccccc3)nc2-c2ccc(F)cc2)cc1`: the pIC90 was 5 and the 90% effect concentration (IC90) amounted to 10.1 µM. Moreover, the IC50 (read-out: IC50) came out at 6.39 µM. Further, for the setting “read-out: pIC50 (converted)”, the IC50 is 6.46 µM.
The corresponding values for `Cc1ccc(C(=O)/C=C/c2cn(-c3ccccc3)nc2-c2ccc(F)cc2)cc1` are 5.1, 7.96 µM, 7.18 µM and 7.24 µM.
For `O=C(/C=C/c1cn(-c2ccccc2)nc1-c1ccc(F)cc1)c1ccc(Cl)cc1`, the pIC90 amounted to 4.15 and the IC90 came out at 71.3 µM. Besides, the IC50 (read-out: IC50) was 33.9 µM. Further, for the setting “read-out: pIC50 (converted)”, the IC50 was 33.9 µM.
On to `O=C(/C=C/c1cn(-c2ccccc2)nc1-c1ccc(F)cc1)c1ccc(F)cc1`, for which the pIC90 is given as 5.09 and it took 8.09 µM to reach the 90% level (IC90). For the same compound, where the note is “read-out: IC50”, the IC50 was determined as 7.14 µM. Also, for the setting “read-out: pIC50 (converted)”, the IC50 was 7.08 µM.
For `O=C(/C=C/c1cn(-c2ccccc2)nc1-c1ccc(F)cc1)c1ccc(O)cc1`, in that order: 5.07, 8.47 µM, 7.46 µM and 7.41 µM.
The compound `O=C(/C=C/c1cn(-c2ccccc2)nc1-c1ccc(F)cc1)c1ccccc1O` came in with a pIC90 of 4.34 and a concentration for an effect of 90% (IC90) of 45.4 µM. Besides, the IC50 (read-out: IC50) was 26.2 µM. For the same compound, the IC50 (read-out: pIC50 (converted)) was 26.3 µM.
On to `O=C(/C=C/c1cn(-c2ccccc2)nc1-c1ccc(F)cc1)c1ccc([N+](=O)[O-])cc1`, for which the pIC90 came to 4.27 and the 90% effect concentration (IC90) came out at 53.5 µM. For the same compound, the IC50 (read-out: IC50) amounted to 12.7 µM. For the same compound, under “read-out: pIC50 (converted)”, the IC50 is 12.6 µM.
For `O=C(/C=C/c1cn(-c2ccccc2)nc1-c1ccc(F)cc1)c1ccc(Br)cc1`, in that order: 4.74, 18.1 µM, 9.77 µM and 9.77 µM.
The corresponding values for `O=C(/C=C/c1cn(-c2ccccc2)nc1-c1ccc(F)cc1)c1cccs1` are 4.87, 13.5 µM, 8.08 µM and 8.13 µM.
The corresponding values for `Oc1ccc(C2=NN[C@@H](c3cn(-c4ccccc4)nc3-c3ccc(F)cc3)C2)cc1` are 4.3, 49.8 µM, 31 µM and 30.9 µM.
On to `Oc1ccccc1C1=NN[C@@H](c2cn(-c3ccccc3)nc2-c2ccc(F)cc2)C1`, for which the pIC90 was found to be 4.5 and the IC90 worked out at 31.7 µM. The IC50 (read-out: IC50) is 28.1 µM. Further, under “read-out: pIC50 (converted)”, the IC50 is 28.2 µM.
The corresponding values for `O=[N+]([O-])c1cccc(C2=NN[C@@H](c3cn(-c4ccccc4)nc3-c3ccc(F)cc3)C2)c1` are 4.16, 68.7 µM, 39 µM and 38.9 µM.
For `Fc1ccc(-c2nn(-c3ccccc3)cc2[C@H]2CC(c3ccc(Br)cc3)=NN2)cc1`, in that order: 4.64, 22.9 µM, 7.9 µM and 7.94 µM.
`Nc1ccc(C2=NN[C@@H](c3cn(-c4ccccc4)nc3-c3ccc(F)cc3)C2)cc1` came in with a pIC90 of 3.9 and a 90% effect concentration (IC90) of 127 µM. Further, the IC50 (read-out: IC50) came to 74.4 µM. Also, the IC50 (read-out: pIC50 (converted)) is 74.1 µM.
For `O=C(c1ccccc1)N1N=C(c2ccccc2)C[C@@H]1c1cn(-c2ccccc2)nc1-c1ccc(F)cc1`, in that order: 4.06, 86.4 µM, 50.4 µM and 50.1 µM.
For `COc1ccc(C2=NN(C(=O)c3ccccc3)[C@@H](c3cn(-c4ccccc4)nc3-c3ccc(F)cc3)C2)cc1`, in that order: 4.62, 23.8 µM, 13.8 µM and 13.8 µM.
For `Cc1ccc(C2=NN(C(=O)c3ccccc3)[C@@H](c3cn(-c4ccccc4)nc3-c3ccc(F)cc3)C2)cc1`, in that order: 5.46, 3.48 µM, 3.02 µM and 3.02 µM.
`O=C(c1ccccc1)N1N=C(c2ccc(Cl)cc2)C[C@@H]1c1cn(-c2ccccc2)nc1-c1ccc(F)cc1`: the pIC90 is <3.72 and the IC90 was > 192 µM. Where the note is “read-out: IC50”, the IC50 amounted to 51.4 µM. In addition, the IC50 (read-out: pIC50 (converted)) is 51.3 µM.
`O=C(c1ccccc1)N1N=C(c2ccc(F)cc2)C[C@@H]1c1cn(-c2ccccc2)nc1-c1ccc(F)cc1` showed a pIC90 of 5.49 and an IC90 of 3.22 µM. Moreover, the IC50 (read-out: IC50) came out at 2.65 µM. Also, the IC50 (read-out: pIC50 (converted)) was 2.63 µM.
The corresponding values for `O=C(c1ccccc1)N1N=C(c2ccc([N+](=O)[O-])cc2)C[C@@H]1c1cn(-c2ccccc2)nc1-c1ccc(F)cc1` are <3.73, > 187 µM, 57.4 µM and 57.5 µM.
For `O=C(c1ccccc1)N1N=C(c2cccc([N+](=O)[O-])c2)C[C@@H]1c1cn(-c2ccccc2)nc1-c1ccc(F)cc1`, in that order: 3.99, 101 µM, 42.4 µM and 42.7 µM.
The corresponding values for `O=C(c1ccccc1)N1N=C(c2ccc(Br)cc2)C[C@@H]1c1cn(-c2ccccc2)nc1-c1ccc(F)cc1` are 4.12, 75.7 µM, 37.8 µM and 38 µM.
For the compound `O=C(c1ccccc1)N1N=C(c2cccs2)C[C@@H]1c1cn(-c2ccccc2)nc1-c1ccc(F)cc1`, the pIC90 was 4.05 and the IC90 turned out to be 88.7 µM. The IC50 (read-out: IC50) was 46.9 µM. In addition, under “read-out: pIC50 (converted)”, the IC50 was 46.8 µM.
For `O=NN1N=C(c2ccccc2O)C[C@@H]1c1cn(-c2ccccc2)nc1-c1ccc(F)cc1`, in that order: <3.63, > 234 µM, 119 µM and 117 µM.
The corresponding values for `O=NN1N=C(c2ccc([N+](=O)[O-])cc2)C[C@@H]1c1cn(-c2ccccc2)nc1-c1ccc(F)cc1` are 4.39, 40.5 µM, 25.3 µM and 25.1 µM.
Turning to `O=NN1N=C(c2cccc([N+](=O)[O-])c2)C[C@@H]1c1cn(-c2ccccc2)nc1-c1ccc(F)cc1`, the pIC90 is recorded as 4.48 and the IC90 was determined as 33.4 µM. Where the note is “read-out: IC50”, the IC50 stood at 22.5 µM. The IC50 (read-out: pIC50 (converted)) is 22.4 µM.
